We go through ten compounds from US10799494B2, “Combination of respiratory electron transport chain inhibitors with a cytochrome bd inhibitor” (priority 2015, dated 2020).

Where “and” joins values, the source holds several entries; their conditions need not be identical. Identical values can stand only once.

One data set deals with M. tuberculosis H37Rv. Nature of the data set: M. tuberculosis H37Rv growth inhibition screen at fixed 5 μM. The format is cell-based, Mycobacterium tuberculosis. Conditions: Mycobacterium tuberculosis, H37RV; aerobic; 5 μM compound; read-out: Growth of M. tuberculosis H37Rv (aerobic) at 5 μM of [compounds].
The next data set deals with HepG2 cell line. As to the kind of experiment: Human cell counter screen (HepG2) cellular toxicity. Background: The purpose of a counterscreen is to sort out artefacts and off-target activity.
The target in data set [1] is M. tuberculosis cytochrome bd-I (Mycobacterium tuberculosis, UniProt L7N662). It is filed as biochemical.
Sequence of M. tuberculosis cytochrome bd-I (L7N662 1-485): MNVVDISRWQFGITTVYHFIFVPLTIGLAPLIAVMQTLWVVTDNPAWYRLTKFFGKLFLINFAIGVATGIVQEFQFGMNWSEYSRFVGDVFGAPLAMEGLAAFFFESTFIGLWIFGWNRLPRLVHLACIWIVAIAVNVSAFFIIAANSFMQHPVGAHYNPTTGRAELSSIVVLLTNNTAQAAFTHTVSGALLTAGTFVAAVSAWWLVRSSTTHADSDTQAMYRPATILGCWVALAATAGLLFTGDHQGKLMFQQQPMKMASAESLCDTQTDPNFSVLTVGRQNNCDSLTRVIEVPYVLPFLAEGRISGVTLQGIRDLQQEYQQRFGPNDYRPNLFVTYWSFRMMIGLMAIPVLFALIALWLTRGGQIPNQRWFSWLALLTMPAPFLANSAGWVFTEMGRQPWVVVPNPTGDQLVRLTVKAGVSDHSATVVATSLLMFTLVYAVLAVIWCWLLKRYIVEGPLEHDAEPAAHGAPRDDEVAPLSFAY
Another data set has as its target bovine cytochrome bc1 (Bos taurus (Bovine), UniProt P00157). As to the kind of experiment: Bovine cytochrome bc1 inhibition (cytochrome c reduction, Keilin-Hartree particles). It is filed as biochemical.
The test system of a further data set is Mtb H37Rv. As to the kind of experiment: In vitro (replicating) Mtb growth inhibition, microplate Alamar blue assay. It is filed as cell-based, Mycobacterium tuberculosis. In general terms: Alamar Blue is a resazurin reagent that responds to reducing activity.
Data set [2] concerns Mycobacterium tuberculosis (Mtb) H37Rv. Nature of the data set: MGIT growth inhibition assay, time to positivity. The format is cell-based.
In data set [3] the target is recombinant M. tuberculosis bd-I (Mycobacterium tuberculosis, UniProt L7N662). As to the kind of experiment: Steady-state kinetics of quinol:Mtb bd-I activity with artificial quinol substrates. Conditions: for specific catalytic activity: FIG. 1, measured at 283 nm.
Sequence of recombinant M. tuberculosis bd-I (L7N662 1-485): as above
For data set [4], the system named is COc1c(O)c(C)c(C/C=C(\C)CCC=C(C)C)c(O)c1OC. Nature of the data set: cells, lysate or membranes named. Conditions: pH 7.5.
Data set [5] has as its system COc1c(O)c(C)c(CC=C(C)C)c(O)c1OC. As to the kind of experiment: cells, lysate or membranes named. Conditions: pH 7.5.
The conditions of data set [6]: 9/79 vs placebo 2/81, […]; cited from earlier work.
The mark [7] stands for this setting: Table 8, WDH-2G-6 3 μM, MTC420 5.5 μM, lansoprazole sulphide 26.5 μM, TMC207 250 nM, media control 10.

Sequence of bovine cytochrome bc1 (P00157 whole entry, looked up): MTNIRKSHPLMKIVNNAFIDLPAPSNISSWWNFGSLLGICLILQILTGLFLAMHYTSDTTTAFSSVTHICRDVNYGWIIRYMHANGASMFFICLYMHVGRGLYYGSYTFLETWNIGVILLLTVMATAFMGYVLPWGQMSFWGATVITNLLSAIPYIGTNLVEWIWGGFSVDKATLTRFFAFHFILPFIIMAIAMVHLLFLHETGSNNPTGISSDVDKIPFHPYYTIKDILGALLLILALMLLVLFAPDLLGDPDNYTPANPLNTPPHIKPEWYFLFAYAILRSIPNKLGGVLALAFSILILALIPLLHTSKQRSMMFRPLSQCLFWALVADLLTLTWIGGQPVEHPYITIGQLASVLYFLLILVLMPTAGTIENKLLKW

As usually defined, the IC50 is the midpoint of a concentration-inhibition curve. A low value points to inhibition by little substance. Turning to `Cc1c(-c2ccc(Cc3ccccc3)cc2)[nH]c2ccccc2c1=O` [CK-2-88, 2-(4-Benzylphenyl)-3-methylquinolin-4(1H)-one], the activity at 5 µM in the data set with M. tuberculosis H37Rv was determined as 90.5%. The compound also registered a HepG2 with HepG2 cell line above 100 µM. In addition, the “inhibition @ 1 uM (% of cntls)” value in [1] is 87.5 % of cntls. In addition, the half-inhibitory concentration (IC50) against bovine cytochrome bc1 worked out at 340 nM.

`Cc1c(-c2ccc(N3CCC(F)(F)C3)cc2)[nH]c2cc(F)cc(F)c2c1=O` [MTC420] yielded an IC50 in the data set with Mtb H37Rv of 520 nM. For the same compound, in data set [2] (FIG. 3, repeated 3 times), the “Time to positivity / outgrowth of Mtb in MGITs” value was in the range of 11 to 13 days. In addition, the “Time to Positivity” value in data set [2] (Table 6, compounds at 5x IC90, drug free control 11, followed to 74 days) was 18 days; in data set [2] (setting [7]) it was 13 days.

As to `CCCCCCCCCCc1c(C)c(O)c(OC)c(OC)c1O` [dQH2, decylubiquinol], in data set [3], the “specific catalytic activity ± SEM” value was 9.0 ± 0.2 µmol/min/mg and 5.1 ± 0.3 µmol/min/mg and 6.2 ± 0.5 µmol/min/mg; the specific catalytic activity came out at 5.1 ± 0.29 µmol/min/mg.

As for `O=c1cc(-c2ccc(Cc3ccc(OC(F)(F)F)cc3)cc2)[nH]c2ccccc12` [RKA-70, 2-(4-(4-(Trifluoromethoxy)benzyl)phenyl)quinolin-4(1H)-one], in the data set on M. tuberculosis H37Rv, the activity at 5 µM is 100%. The same compound displayed a HepG2 in the data set with HepG2 cell line above 50 µM. This compound also yielded an IC50 against bovine cytochrome bc1 of 310 nM.

Broadly, the Km is the substrate concentration at which the rate is half of its maximum. For “recombinant M. tuberculosis bd-I (Mycobacterium tuberculosis H37Rv)”, the Km in data set [4] is 65.21 ± 15.31 µM and 65.2 ± 15.3 µM; in data set [5] it was 51.55 ± 8.9 µM and 51.6 ± 8.9 µM and 51.8 ± 6.1 µM.

For the compound `Cc1c(-c2ccc(Cc3ccc(F)cc3)cc2)[nH]c2ccccc2c1=O` [LT-9, 2-(4-(4-Fluorobenzyl)phenyl)-3-methylquinolin-4(1H)-one], the activity at 5 µM with M. tuberculosis H37Rv came out at 34.7%. Besides, the HepG2 in the data set with HepG2 cell line is above 50 µM.

In the case of `COc1c(O)c(C)c(C/C=C(\C)CCC=C(C)C)c(O)c1OC` [Compound Q2H2, ubiquinol-2], in data set [3], the “specific catalytic activity ± SEM” value came out at 8.7 ± 2.5 µmol/min/mg and the specific catalytic activity turned out to be 8.65 ± 2.5 µmol/min/mg.

`COc1nc2ccc(Br)cc2cc1[C@@H](c1ccccc1)[C@@](O)(CCN(C)C)c1cccc2ccccc12` [TMC 207, bedaquiline]: the “death in treatment group” value in data set [6] was 11.4%. The “Time to Positivity” value in data set [2] (Table 7 / FIG. 9, compounds at 5x IC90, 7.5×10^5 Mtb cells per tube, drug free control 8, followed to 80 days) was found to be 12 days; in data set [2] (setting [7]), 13 days.

On to `Cc1c(-c2ccc(-c3ccc(OC(F)(F)F)cc3)nc2)[nH]c2ccccc2c1=O` [SL-2-25, 3-Methyl-2-(6-(4-(trifluoromethoxy)phenyl)pyridin-3-yl)quinolin-4(1H)-one], for which the activity at 5 µM in the data set on M. tuberculosis H37Rv was determined as 88.9%. The compound further registered a HepG2 in the data set on HepG2 cell line above 50 µM. The half-maximal inhibitory concentration (IC50) against bovine cytochrome bc1 was found to be 890 nM.

With `COc1c(O)c(C)c(CC=C(C)C)c(O)c1OC` [Compound Q1H2, ubiquinol-1], the specific catalytic activity in [3] came out at 5.26 ± 0.52 µmol/min/mg.
